From patent publication US20230141823A1, “PREBIOTIC AND PROBIOTIC TREATMENT TO REDUCE ORAL DYSBIOSIS AND PROMOTE EUBIOSIS” (FUNDACIÓN PARA EL FOMENTO DE LA INVESTIGACIÓN SANITARIA Y …, priority 2019, published 2023)
Read-outs that look alike come from different tables or passages of the source.

Key:
[1] = test system: oral biofilms grown from unstimulated saliva; conditions: 6.5 mM nitrate
Procedure: (§1) BHI medium (Biolife) with an additional 0.05 mg/L haemin, 0.005 mg/L menadione and 0.2 mM vitamin K (all Sigma-Aldrich) was prepared of which 100 pi was added to each well for background impedance measurements. An additional 25 µl of a 65 mM nitrate in water or just water were added to each well of the nitrate or control condition, respectively. Then, 125 pi freshly collected saliva was added, leading to a final concentration of 6.5 mM nitrate in the nitrate condition. The E-Plate 96 was placed in the xCELLigence system inside an incubator at 37° C. Every 10 minutes, a Cell Index measurement was taken. […] For Oh measurements, 1:1 medium and saliva mixtures were used. Then, duplicates of supernatant and biofilm were taken after 5 h and 9 h of growth. The supernatant was sampled and stored at −20° C. until pH, nitrate, nitrite, ammonium and lactate measurements. After this, a PBS washing step was performed and duplicates of biofilms were resuspended together in 200 pi PBS for storage at −20° C. until DNA isolation for sequencing.
For DNA extraction, the biofilms were resuspended in 100 pi PBS and disaggregated 30 s in a sonicator bath (model Raypa VCI-50) at low ultrasound intensity. After this, DNA was isolated by MagNA Pure LC 2.0 Instrument (Roche Diagnostics), using the MagNA Pure LC DNA Isolation Kit III for Bacteria and Fungi (Roche Diagnostics) following the manufacturer's instructions with an additional enzymatic lysis step: to a salivary pellet in 100 pi PBS, […] lysis buffer and […] of enzyme mix, containing 20 mg/ml lysozyme ([…]), 5 mg/l lysostaphin (Sigma-Aldrich) and 0.625 mg/ml mutanolysin (Sigma-Aldrich), were added and incubated for 60 min at 37° C. DNA was resuspended in […] elution buffer and frozen at −20° C. until further analysis. To determine the amount of DNA for sequencing, the Quant-iT™ PicoGreen® dsDNA Assay Kit (ThermoFisher) and a Qubit™ 3 Fluorometer (ThermoScientific) were used, according to manufacturer's instructions.
A pre-amplification step of the V1-V5 regions of the 16S rRNA gene was performed, following Dzidic et al 2019. An Illumina amplicon library was performed following the 16S rDNA gene Metagenomic Sequencing Library Preparation Illumina protocol (Part #15044223 Rev. A). The gene-specific primer sequences used in this protocol were 16S Amplicon F (SEQ ID NO: 8) and 16S Amplicon R (SEQ ID NO: 9), targeting the 16S rDNA gene V3 and V4 regions, resulting in a single amplicon of 460 bp. Overhang adapter sequences were used together for compatibility with Illumina index and sequencing adapters. After 16S rDNA gene amplification, the DNA was sequenced on a MiSeq Sequencer according to manufacturer's instructions (Illumina) using the 2×300 bp paired-ends protocol.
The sequences were analyzed according to Boix-Amoros et al., 2016. In short, the reads were quality-filtered and end-trimmed in 10 bp windows with Prinseq. The PCR chimeras were removed with UCHIME according to Edgar et al., 2011. Only filtered sequences >250 bp were used to be taxonomically assigned at the genus level with the classifier of the Ribosomal Database Project (Wang et al., 2007), using a confidence interval of 80%. Operational Taxonomic Unit (OTU) picking was performed using VSEARCH (Rognes, 2016) at a 97% of sequence identity. Each OTU was aligned centroid using BLAST at 97% of identity and 100% query coverage, and retrieved only those species that agreed with the previous classification of the centroid at genus level provided by RDP classifier.
Overall R programming language was used for statistical computing to perform downstream analyses. Genera with an abundance of <0.01% were removed from all groups.

[2] = test system: oral biofilm grown from saliva of donors D2 and D25; test: Effect of isolates on in vitro biofilms: colonization by sequencing; type: cell-based, human; conditions: 5 h of growth
Procedure: Six isolates selected as best potential probiotics based on the results from previous experiments were studied in vitro to define the effect of these isolates when they are added to an oral biofilm. These isolates were tested by growing them with saliva of two different donors (D2 and D25 in our database) in a 96-wells plate. For each experiment, there were 4 conditions: control, nitrate (i.e., 6.5 mM nitrate), control+isolate, and nitrate+isolate. […] Then, 100 pL of saliva (or BHI for negative controls) was added and, for the nitrate conditions, 10 pL of nitrate solution 65 mM was added (or 10 pL of BHI for control conditions). Negative controls were added in each experiment: only BHI medium and BHI medium+nitrate. Before being added to the 96-well plate, the isolates were grown for 24 h. Then, 40 pL isolate in BHI solution with OD 1.5 was added (or 40 pL of just BHI in conditions without isolates) to each well. The final concentration of nitrate was 6.5 mM and starting OD of the isolate was 0.24. The 96-well plate was sealed to prevent oxygen presence, and incubated during 5 h 30 min at 37° C. After that, the supernatant was collected, the pellet resuspended in 30 pL of PBS and both stored at −20° C. until measurements were performed. The DNA was extracted and the biofilms were sequenced as described in EXAMPLE 1.

[3] = test system: unstimulated saliva
Procedure: The unstimulated saliva of D25-D33 was used to test the effect of different concentrations of nitrate on a pH drop caused by 0.2% of glucose after 5 h of incubation. For each donor, 187 µl of saliva and 22 µl of glucose (2% diluted in water) was added per well of a standard 96-well plate. Then, 11 pL of water without or with different concentrations of nitrate was added, leading to final concentrations of 0 mM, 0.5 mM, 1 mM, 1.5 mM, 2.5 mM, 3.5 mM, 4.5 mM, 5.5 mM, 6.5 mM, 7.5 mM and 8.5 mM of nitrate. The plate was sealed with adhesive aluminum foil (VWR) and incubated during 5 h at 37° C. After incubation, the samples were stored at −20° C. until pH measurements.
(§2) For the nitrate, nitrite, ammonium, lactate and pH measurements, the RQflex® 10 Reflectoquant® (Merck Millipores), a reflectometer that measures the reflection of color changing test strips, was used.

[4] = adult of 60 kg; cited from earlier work
[5] = in vivo; cited from earlier work
[6] = test system: biofilms from subgingival plaque of patients with periodontitis
Procedure: In addition to the oral biofilms from healthy individuals provided in EXAMPLE 1, ex vivo experiments with a dysbiotic community (subgingival plaque samples from patients with periodontitis) were performed. Eleven patients diagnosed with periodontitis were enrolled into the study. Subgingival plaque was collected by inserting eight to ten sterile paper points inside the deepest periodontal pockets. The paper points were then transferred to a 2 mL tube containing reduced transport media (RTF) and stored in a cooling box at around 4° C. for max. 18 hours. For the biofilm growth, BHI containing vitamin K and hemin (as described in EXAMPLE 1) was used. Transport medium was removed by centrifugation (1 min, 12000 rpm), followed by resuspension into 1 mL BHI. The xCELLigence system described in EXAMPLE 1 was used. Patient samples were incubated under four different conditions; control, nitrate, control+probiotic and nitrate+probiotic. First, 100 µl of periodontal plaque in BHI was added to the wells. Then, for the nitrate condition, 5 µl of 250 mM nitrate in BHI was added to the wells to obtain a 5 mM nitrate concentration. For the control+probiotic and nitrate+probiotic conditions, 45 pi of R. aeria D1P7 culture of OD (600 nm)=0.417 was added to the wells, resulting in a final OD (600 nm) of 0.075 per well. BHI was added to reach a final volume of 250 pi. A medium control (without patient sample or probiotic) with nitrate (Cntr) was used to determine the initial amounts of nitrate and nitrite in the medium. After 7 hours of incubation, supernatant and biofilm was harvested for nitrate/nitrite measurements and 16S rRNA gene sequencing, respectively (both described in EXAMPLE 1).

[7] = test system: oral biofilms grown from unstimulated saliva
Procedure: as §1, §2
In the case of nitrate, nitrite, ammonium and lactate measurements, the supernatant of the cultures was diluted 1:10 with water to minimize the interference of medium compounds. […] For pH measurements, undiluted supernatant was used. For all measurements except ammonium, 15 pi of (diluted) supernatant was added to two reactive patches on a strip, excess liquid was removed by tipping the side of the strip on a tissue, the corresponding incubation time was applied for each measurement, and the strip was put inside the reflectometer.
Nitrite was measured first. The diluted supernatants in which 0.5 mg/l or more nitrite was detected were treated with amidosulfuric acid to remove nitrite before nitrate measurements. For this, […] of diluted supernatant was mixed with 1.5 ml amidosulfuric acid solution (10%), and directly added to the strips.
For ammonium measurements, aliquots were made of […] diluted supernatant to which 10 m l of reagent 1 of the kit was added first and resuspended well. Then, […] of a freshly made mixture of one scoop of reagent 2 (both provided with the kit) dissolved in 1.25 ml water was added directly and resuspended well. This solution was then directly added to the strips and incubated. Five seconds before the measurements, excess liquid was removed. All measured concentrations were adjusted by dilution factors.

[8] = test system: oral biofilms grown from unstimulated saliva; remark: listed apart in the source
Procedure: as §1

[9] = Donor 2, Nitrate condition (6.5 mM)
[10] = Donor 25, Nitrate condition (6.5 mM)

Structure (SMILES): O=[N+]([O-])O [Nitrate, nitrate]
- increase of Neisseria compared to control condition ([1]; 5 h): 3.5 ×
- Bacterial abundance Aggregatibacter (Average) ([1]; 5 h (n = 12)): 0.55%
- Bacterial abundance Alloprevotella (Average) ([1]; 5 h (n = 12)): 0.21%
- Bacterial abundance Fusobacterium (Average) ([1]; 5 h (n = 12)): 0.15%
- Bacterial abundance Gemella (Average) ([1]; 5 h (n = 12)): 2.76%
- Bacterial abundance Granulicatella (Average) ([1]; 5 h (n = 12)): 2.16%
- Bacterial abundance Haemophilus (Average) ([1]; 5 h (n = 12)): 7.30%
- Bacterial abundance Leptotrichia (Average) ([1]; 5 h (n = 12)): 0.14%
- Bacterial abundance Neisseria (Average) ([1]; 5 h (n = 12)): 20.65%
- Bacterial abundance Other (Average) ([1]; 5 h (n = 12)): 3.64%
- Bacterial abundance Porphyromonas (Average) ([1]; 5 h (n = 12)): 0.56%
- Bacterial abundance Prevotella (Average) ([1]; 5 h (n = 12)): 1.99%
- Bacterial abundance Rothia (Average) ([1]; 5 h (n = 12)): 0.53%
- Bacterial abundance Streptococcus (Average) ([1]; 5 h (n = 12)): 45.29%
- Bacterial abundance Viellonella (Average) ([1]; 5 h (n = 12)): 10.84%
- Bacterial abundance unclass. Neisseriaceae (Average) ([1]; 5 h (n = 12)): 0.95%
- Bacterial abundance unclass. Pasteurellaceae (Average) ([1]; 5 h (n = 12)): 2.00%
- Bacterial abundance unclass. Veillonellaceae (Average) ([1]; 5 h (n = 12)): 0.26%
- Rothia higher than in control condition ([1]; 5 h and 9 h): 2.7 ×
- increase of Neisseria compared to control condition ([1]; 9 h): 4.9 ×
- Bacterial abundance Aggregatibacter (Average) ([1]; 9 h (n = 12)): 0.72%
- Bacterial abundance Alloprevotella (Average) ([1]; 9 h (n = 12)): 0.37%
- Bacterial abundance Fusobacterium (Average) ([1]; 9 h (n = 12)): 0.38%
- Bacterial abundance Gemella (Average) ([1]; 9 h (n = 12)): 1.83%
- Bacterial abundance Granulicatella (Average) ([1]; 9 h (n = 12)): 1.56%
- Bacterial abundance Haemophilus (Average) ([1]; 9 h (n = 12)): 8.86%
- Bacterial abundance Leptotrichia (Average) ([1]; 9 h (n = 12)): 0.16%
- Bacterial abundance Neisseria (Average) ([1]; 9 h (n = 12)): 20.99%
- Bacterial abundance Other (Average) ([1]; 9 h (n = 12)): 4.80%
- Bacterial abundance Porphyromonas (Average) ([1]; 9 h (n = 12)): 1.51%
- Bacterial abundance Prevotella (Average) ([1]; 9 h (n = 12)): 2.78%
- Bacterial abundance Rothia (Average) ([1]; 9 h (n = 12)): 0.25%
- Bacterial abundance Streptococcus (Average) ([1]; 9 h (n = 12)): 31.75%
- Bacterial abundance Viellonella (Average) ([1]; 9 h (n = 12)): 20.40%
- Bacterial abundance unclass. Neisseriaceae (Average) ([1]; 9 h (n = 12)): 1.07%
- Bacterial abundance unclass. Pasteurellaceae (Average) ([1]; 9 h (n = 12)): 2.12%
- Bacterial abundance unclass. Veillonellaceae (Average) ([1]; 9 h (n = 12)): 0.38%
- change of Kingella ([1]; after 5 h, p<0.05): increased significantly
- Porphyromonas, Fusobacterium, Leptotrichia, Alloprevotella, Dialister and Parvimonas versus control ([1]; p<0.05 at 5 h and/or 9 h): significantly lower
- change of caries-associated Atopobium and Oribacterium ([1]; p<0.05 at 5 h or 5 h and 9 h): decreased significantly
- R. aeria (%) in biofilm [2, 9]: 0.06%
- R. mucilaginosa (%) in biofilm [2, 9]: 2.33%
- R. aeria (%) in biofilm [2, 10]: 0.03%
- R. mucilaginosa (%) in biofilm [2, 10]: 7.94%
- salivary pH after 5 h compared to 0 mM nitrate ([3]; 0.2% glucose, nitrate 0.5 mM to 8.5 mM): higher pH
- nitrate concentrations for which no additional benefits were observed ([3]; after 5 h): above 3.5 mM
- nitrate concentrations that prevented salivary acidification due to glucose fermentation ([3]; after 5 h): ≥ 0.5 mM
- Acceptable Daily Intake, ADI [4]: 222 mg
- nitrate recycled by the salivary glands into saliva [5]: 25%
- nitrate removed from the body by the kidneys into the urine [5]: Around 75%
- mean growth curve of the periodontitis biofilms versus control condition ([6]; 11 patients, 7 h): lower
- levels of periodontal pathogens such as Porphyromonas, Eikenella and Tannerella ([6]; 7 hours, versus control): reducing the levels
- nitrate reduced after the 7 hours of growth ([6]; periodontal samples (n=11), anaerobic): around 20%
- decrease of nitrate after 5 h ([7]; 6.5 mM nitrate added, 5 of 12 donors): 76-85%
- nitrate left after 5 h ([7]; 6.5 mM nitrate added, 7 of 12 individuals): no nitrate detectable
- average nitrite in supernatant ([7]; 6.5 mM nitrate condition, 5 h (1.64 mg/l at 0 h)): 64.68 mg/L
- pH compared to control condition ([7]; 6.5 mM nitrate, 5 h and 9 h, p<0.005): significantly higher
- share of the 6.5 mM added nitrate accounted for by ammonium (stoichiometric) ([7]; after 9 h): 73.1%
- increase of average ammonium after 5 h ([7]; nitrate condition (control 1.72×)): 2.21 ×
- increase of average lactate after 5 h ([7]; nitrate condition (control 4.74×)): 3.40 ×
- ammonium higher than in the control condition ([7]; nitrate condition, after 9 h): 4.75 mM
- real-time impedance measurements of biofilm growth compared to control biofilms ([8]; 6.5 mM nitrate (403 mg/L)): did not show significant changes
- biofilm protein levels compared to control ([8]; 6.5 mM nitrate, 5 h and 9 h): did not differ significantly
